Patent US4436726A, “N-Acylpeptide compound, processes for the preparation thereof and the pharmaceutical compositions” (Fujisawa Pharmaceutical Co., Ltd., priority 1980, dated 1984)

Legend:
[1] = tested on: complement serum (guinea pig complement); experiment: Anticomplementary activity (inhibition of hemolysis of sensitized erythrocytes); type: biochemical; settings: 50% hemolysis inhibition, 37° C.
Description: The anticomplementary activity of the test compound was measured according to the test method as described in Experimental Immunochemistry, edited by E. A. Kabat and M. M. Mayer, 2nd ed., Springfield, III: C. C. Thomas (1961) pages 133-240.
A mixture of 1 ml of a 5-fold diluted solution of a Veronal buffer solution containing 1.5×10^-4 M Ca^2+ and 5×10^-4 M Mg^2+ and isotonic gelatin, 1.5 ml of complement serum (guinea pig complement) diluted 400 times with a physiological saline solution and 0.05 ml of a solution of a test compound (in this case, a test compound was dissolved in a physiological saline solution) was incubated at 37° C. for 30 minutes. To the said mixture there was added 0.4 ml of sensitized erythrocytes suspension containing 5×10^8 cells/ml and said mixture was incubated at 37° C. further for 60 minutes. After the incubation, the mixture was centrifuged in 3,000 rpm at 4° C. for 10 minutes.
The results are expressed in Table 1 as the concentration of each drugs inhibiting the hemolysis activity by 50% (IC50).

[2] = tested on: blood clot (fresh rabbit blood, urokinase, bovine thrombin); experiment: Fibrinolytic activity (modified diluted whole blood clot lysis time method); type: biochemical; settings: 50 μl of test compound (300 μg/ml), 37° C.
Description: The enhancement of the fibrinolytic activity of the test compounds was measured according to the modified diluted whole blood clot lysis time method described in
G. R. Fearnley, G. V. Balmforth, E. Fearnley: Clin. Sci. 16, 645-650 (1957)
I. S. Chohan et al: Thrombos. Diathes. Haemorrh. 33, 226 (1975) and
I. M. Nilsson et al: Handbook of Experimental Pharmacology 46, 110
Fresh rabbit blood was diluted 20 times with 1/15 M phosphate buffer (pH 7.4). A mixture of 400 μl of the diluted blood solution and 50 μl of a test compound (300 μg/ml) was incubated at 37° C. for 30 minutes. To the mixture were added 50 μl of urokinase solution (100 IU/ml) and 50 μl of bovine thrombin (100 N.I.H. u/ml). The clot produced in tubes was incubated at 37° C. for various periods of time. At the end of each incubation interval (15 minutes interval), 2.5 ml of distilled water was added to lyse erythrocytes released from clotted blood and absorbance (OD541) of the supernatant separated by centrifugation (3,000 rpm for 10 minutes) from the reaction mixture was measured. The fibrinolytic activity of the test compound was determined by the time in minutes needed for the complete lysis of the blood clot.
In the absence of a test compound, it took more than 2 hours to lyse blood clot in the above condition. However, blood clot was lysed in the presence of test compounds after 15 minutes (symbol: ++) and 45 minutes (symbol: +) incubation, respectively. Samples which were incapable of lysing blood clot within 1 hour incubation were expressed as symbol (-).

CC(C)CCCCCCCCCCCC(=O)OC(CCCCCCCCCCCC(C)C)CC(=O)NCC(=O)N[C@@H](CO)C(=O)O (stereo partly drawn) [Example 1, N-[N-[15-methyl-3-(13-methyltetradecanoyloxy)hexadecanoyl]glycyl]-L-serine]
Anticomplementary Activity (IC50) [1]: 1.0 µg/mL

CCCCCCCCCCCC(=O)OC(CCCCCCCCCCC)CC(=O)NCC(=O)N[C@@H](CO)C(=O)O (stereo partly drawn) [Example 3, N-[N-(3-dodecanoyloxytetradecanoyl)glycyl]-L-serine]
Anticomplementary Activity (IC50) [1]: 0.12 µg/mL

CCCCCCCCCCCCCCCC(=O)OC(CCCCC)CC(=O)NCC(=O)N[C@@H](CO)C(=O)O (stereo partly drawn) [Example 4, N-[N-(3-hexadecanoyloxyoctanoyl)glycyl]-L-serine]
Anticomplementary Activity (IC50) [1]: 1.1 µg/mL

CCCCCCCCCCCCCCCC(=O)OC(CCCCCCCCCCCCCCC)CC(=O)NCCC(=O)N[C@H](C(=O)O)[C@@H](C)O (stereo partly drawn) [Example 7, N-[N-(3-hexadecanoyloxyoctadecanoyl)-β-alanyl]-L-threonine]
Anticomplementary Activity (IC50) [1]: 0.02 to 0.03 µg/mL

CC(C)CCCCCCCCCCCC(=O)OC(CCCCCCCCCCCC(C)C)CC(=O)NCCC(=O)N[C@H](C(=O)O)[C@@H](C)O (stereo partly drawn) [Example 8, N-[N-[15-methyl-3-(13-methyltetradecanoyloxy)hexadecanoyl]-β-alanyl]-L-threonine]
Anticomplementary Activity (IC50) [1]: 0.04 to 0.06 µg/mL

CC(C)CCCCCCCCCCCC(=O)OC(CCCCCCCCCCCC(C)C)CC(=O)NCCC(=O)N[C@@H](CO)C(=O)O (stereo partly drawn) [Example 9, N-[N-[15-methyl-3-(13-methyltetradecanoyloxy)hexadecanoyl]-β-alanyl]-L-serine]
Fibrinolytic Activity (time needed for complete lysis of the blood clot) [2]: + (45 minutes (symbol: +) incubation) | Anticomplementary Activity (IC50) [1]: 0.1 µg/mL

CCCCCCCCCCCCCCCC(=O)OC(CCCCCCCCCCCCCCC)CC(=O)NCCC(=O)N[C@@H](CO)C(=O)O (stereo partly drawn) [Example 10, N-[N-(3-hexadecanoyloxyoctadecanoyl)-β-alanyl]-L-serine]
Anticomplementary Activity (IC50) [1]: 0.03 to 0.04 µg/mL

CC(C)CCCCCCCCCCCC(=O)OC(CCCCCCCCCCCC(C)C)CC(=O)NCC(=O)N[C@H](C(=O)O)[C@@H](C)O (stereo partly drawn) [Example 11, N-[N-[15-methyl-3-(13-methyltetradecanoyloxy)hexadecanoyl]glycyl]-L-threonine]
Fibrinolytic Activity (time needed for complete lysis of the blood clot) [2]: + (45 minutes (symbol: +) incubation) | Anticomplementary Activity (IC50) [1]: 0.36 µg/mL

CC(C)CCCCCCCCCCCC(=O)OC(CCCCCCCCCCCC(C)C)CC(=O)N[C@@H](C)C(=O)N[C@@H](CO)C(=O)O (stereo partly drawn) [Example 12, N-[N-[15-methyl-3-(13-methyltetradecanoyloxy)hexadecanoyl]L-alanyl]-L-serine]
Anticomplementary Activity (IC50) [1]: 0.59 µg/mL

CC(C)CCCCCCCCCCCC(=O)OC(CCCCCCCCCCCC(C)C)CC(=O)N[C@@H](C)C(=O)N[C@H](C(=O)O)[C@@H](C)O (stereo partly drawn) [Example 13, N-[N-[15-methyl-3-(13-methyltetradecanoyloxy)hexadecanoyl]-L-alanyl]-L-thr eonine]
Anticomplementary Activity (IC50) [1]: 0.72 µg/mL

CCCCCCCCCCCCCCCC(=O)OC(CCCCCCCCCCCCCCC)CC(=O)N[C@@H](C)C(=O)N[C@H](C(=O)O)[C@@H](C)O (stereo partly drawn) [Example 14, N-[N-(3-hexadecanoyloxyoctadecanoyl)-L-alanyl]-L-threonine]
Anticomplementary Activity (IC50) [1]: 0.23 µg/mL

CC(C)CCCCCCCCCCCC(=O)OC(CCCCCCCCCCCC(C)C)CC(=O)NCC(=O)N[C@@H](Cc1ccccc1)C(=O)O (stereo partly drawn) [Example 15, N-[N-[15-methyl-3-(13-methyltetradecanoyloxy)hexadecanoyl]glycyl]-L-phenyl alanine]
Fibrinolytic Activity (time needed for complete lysis of the blood clot) [2]: ++ (blood clot was lysed in the presence of test compounds after 15 minutes (symbol: ++)) | Anticomplementary Activity (IC50) [1]: 2.8 µg/mL

CC(C)CCCCCCCCCCCC(=O)OC(CCCCCCCCCCCC(C)C)CC(=O)NCCC(=O)N[C@@H](Cc1c[nH]cn1)C(=O)O (stereo partly drawn) [Example 16, N-[N-[15-methyl-3-(13-methyltetradecanoyloxy)hexadecanoyl]-β-alanyl]-L-histidine]
Anticomplementary Activity (IC50) [1]: 4.2 µg/mL

CC(C)CCCCCCCCCCCC(=O)OC(CCCCCCCCCCCC(C)C)CC(=O)NCC(=O)N[C@@H](Cc1ccc(O)cc1)C(=O)O (stereo partly drawn) [Example 18, N-[N-[15-methyl-3-(13-methyltetradecanoyloxy)hexadecanoyl]glycyl]-L-tyrosine]
Fibrinolytic Activity (time needed for complete lysis of the blood clot) [2]: + (45 minutes (symbol: +) incubation) | Anticomplementary Activity (IC50) [1]: 3.2 µg/mL

CC(C)CCCCCCCCCCCC(=O)OC(CCCCCCCCCCCC(C)C)CC(=O)NCC(=O)O (stereo not drawn) [Example 19, N-[15-methyl-3-(13-methyltetradecanoyloxy)hexadecanoyl]glycine]
Fibrinolytic Activity (time needed for complete lysis of the blood clot) [2]: + (45 minutes (symbol: +) incubation) | Anticomplementary Activity (IC50) [1]: 4.0 µg/mL

CC(C)CCCCCCCCCCCC(=O)OC(CCCCCCCCCCCC(C)C)CC(=O)N[C@@H](CO)C(=O)O (stereo partly drawn) [Example 20, N-[15-methyl-3-(13-methyltetradecanoyloxy)hexadecanoyl]-L-serine]
Fibrinolytic Activity (time needed for complete lysis of the blood clot) [2]: + (45 minutes (symbol: +) incubation) | Anticomplementary Activity (IC50) [1]: 2.8 µg/mL

CCCCCCCCCCCCCCCC(=O)OC(CCCCCCCCCCCCCCC)CC(=O)N[C@@H](Cc1ccccc1)C(=O)O (stereo partly drawn) [Example 26, N-(3-hexadecanoyloxyoctadecanoyl)-L-phenylalanine]
Fibrinolytic Activity (time needed for complete lysis of the blood clot) [2]: + (45 minutes (symbol: +) incubation) | Anticomplementary Activity (IC50) [1]: 3.5 µg/mL

CCCCCCCCCCCCCCCC(=O)OC(CCCCCCCCCCCCCCC)CC(=O)NCC(=O)O (stereo not drawn) [Example 27, N-(3-hexadecanoyloxyoctadecanoyl)glycine]
Fibrinolytic Activity (time needed for complete lysis of the blood clot) [2]: + (45 minutes (symbol: +) incubation) | Anticomplementary Activity (IC50) [1]: 0.44 µg/mL

CCCCCCCCCCCCCCCC(=O)OC(CCCCCCCCCCCCCCC)CC(=O)N[C@H](C(=O)N[C@H](C(=O)O)[C@@H](C)O)C(C)C (stereo partly drawn) [Example 29, N-[N-(3-hexadecanoyloxyoctadecanoyl)-L-valyl]-L-threonine]
Anticomplementary Activity (IC50) [1]: 0.59 µg/mL

CCCCCCCCCCCCCCCC(=O)OC(CCCCCCCCCCCCCCC)CC(=O)NCCC(=O)N[C@@H](Cc1ccccc1)C(=O)O (stereo partly drawn) [Example 32, N-[N-(3-hexadecanoyloxyoctadecanoyl)-β-alanyl]-L-phenylalanine]
Fibrinolytic Activity (time needed for complete lysis of the blood clot) [2]: ++ (blood clot was lysed in the presence of test compounds after 15 minutes (symbol: ++)) | Anticomplementary Activity (IC50) [1]: 1.32 µg/mL

CCCCCCCCCCCCCCCC(=O)OC(CCCCCCCCCCCCCCC)CC(=O)NCCCCC(=O)N[C@H](C(=O)O)[C@@H](C)O (stereo partly drawn) [Example 34, N-[5-(3-hexadecanoyloxyoctadecanoyl)aminovaleryl]-L-threonine]
Fibrinolytic Activity (time needed for complete lysis of the blood clot) [2]: + (45 minutes (symbol: +) incubation) | Anticomplementary Activity (IC50) [1]: 0.02 µg/mL

CCCCCCCCCCCCCCCC(=O)OC(CCCCCCCCCCCCCC)C(=O)NCC(=O)N[C@@H](CO)C(=O)O (stereo partly drawn) [Example 35, N-[N-(2-hexadecanoyloxyhexadecanoyl)glycyl]-L-serine]
Fibrinolytic Activity (time needed for complete lysis of the blood clot) [2]: + (45 minutes (symbol: +) incubation) | Anticomplementary Activity (IC50) [1]: 0.03 µg/mL

CCCCCCCCCCCCCCCC(=O)OC(CCCCCCCCCCCCCC)C(=O)NCCC(=O)N[C@H](C(=O)O)[C@@H](C)O (stereo partly drawn) [Example 36, N-[N-(2-hexadecanoyloxyhexadecanoyl)-β-alanyl]-L-threonine]
Fibrinolytic Activity (time needed for complete lysis of the blood clot) [2]: + (45 minutes (symbol: +) incubation) | Anticomplementary Activity (IC50) [1]: 0.08 µg/mL

CCCCCCCCCCCCCCCC(=O)OC(CCCCCCCCCCCCCCC)CC(=O)NCC(=O)N[C@@H](Cc1ccccc1)C(=O)O (stereo partly drawn) [Example 38, N-[N-(3-hexadecanoyloxyoctadecanoyl)glycyl]-L-phenylalanine]
Fibrinolytic Activity (time needed for complete lysis of the blood clot) [2]: + (45 minutes (symbol: +) incubation) | Anticomplementary Activity (IC50) [1]: 3.4 µg/mL

CCCCCCCCCCCCCCCC(=O)OC(CCCCCCCCCCCCCCC)CC(=O)NCC(=O)N[C@@H](Cc1c[nH]c2ccccc12)C(=O)O (stereo partly drawn) [Example 43, N-[N-(3-hexadecanoyloxyoctadecanoyl)glycyl]-L-tryptophan]
Fibrinolytic Activity (time needed for complete lysis of the blood clot) [2]: + (45 minutes (symbol: +) incubation) | Anticomplementary Activity (IC50) [1]: 5.11 µg/mL
